Measurements published in patent publication US20260014147A1, “STAT6 DEGRADERS” (Gilead Sciences, Inc., priority 2024, published 2026).

biological target: T1, STAT6 (endogenous, HiBiT-tagged) in HeLa LgBiT clone 4.14 cells (Homo sapiens, UniProt P42226); experiment: STAT6 Degrader Assay (HiBiT based, HeLa LgBiT clone 4.14 cells, luminescence, DC50); type: cell-based; conditions: DC50 provided for test compounds with >80% Emax, geometric mean, read-out: STAT6 degradation DC50
T1 construct: These cells express endogenous STAT6; host or cells: HeLa LgBiT clone 4.14
T1 sequence (P42226 1-847): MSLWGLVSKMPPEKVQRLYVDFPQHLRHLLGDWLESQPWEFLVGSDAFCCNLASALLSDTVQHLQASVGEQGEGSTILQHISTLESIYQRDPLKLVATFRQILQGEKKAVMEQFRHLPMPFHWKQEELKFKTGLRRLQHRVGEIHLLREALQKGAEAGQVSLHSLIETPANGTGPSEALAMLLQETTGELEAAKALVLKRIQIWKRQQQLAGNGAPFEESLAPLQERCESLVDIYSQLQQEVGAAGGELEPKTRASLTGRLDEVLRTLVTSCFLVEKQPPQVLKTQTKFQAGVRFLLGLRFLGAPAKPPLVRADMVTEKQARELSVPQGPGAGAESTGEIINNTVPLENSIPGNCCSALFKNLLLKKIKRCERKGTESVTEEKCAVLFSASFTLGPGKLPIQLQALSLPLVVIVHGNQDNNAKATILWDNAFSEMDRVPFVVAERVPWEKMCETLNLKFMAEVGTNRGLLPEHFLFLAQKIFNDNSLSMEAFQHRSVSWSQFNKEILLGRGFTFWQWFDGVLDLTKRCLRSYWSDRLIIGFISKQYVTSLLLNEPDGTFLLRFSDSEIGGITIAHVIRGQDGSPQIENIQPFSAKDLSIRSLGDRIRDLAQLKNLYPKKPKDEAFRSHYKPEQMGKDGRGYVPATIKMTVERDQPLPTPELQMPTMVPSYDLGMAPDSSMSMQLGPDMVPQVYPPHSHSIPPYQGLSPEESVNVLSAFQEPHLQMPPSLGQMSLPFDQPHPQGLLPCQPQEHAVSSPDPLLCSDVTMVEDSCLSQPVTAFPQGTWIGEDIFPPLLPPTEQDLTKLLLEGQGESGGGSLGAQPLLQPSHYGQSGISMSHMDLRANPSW
How it was run: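 Remaining STAT6 is read as NanoBiT luminescence after 0.5 h with Nano-Glo, in HeLa LgBiT clone 4.14 cells expressing endogenous HiBiT-tagged STAT6, following 4-24 h compound incubation at 37 °C. Full degradation is set by 50 µM terfenadine, which kills the cells; degradation plotted against log compound concentration.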

Row | DC50 [nM] | SMILES
1 | 28.6 | Cn1c(CN2CCC(c3ccc(C(=O)N4CCC(CN5CCN(c6ccc(NC7CCC(=O)NC7=O)c(F)n6)CC5)CC4)cc3)CC2)cc2c(-c3ccc4[nH]ncc4c3)ccnc21 (centres unmarked) [Example 2n2, 3-((6-(4-((1-(4-(1-((4-(1H-indazol-5-yl)-1-methyl-1H-pyrrolo[2,3-b]pyridin-2-yl)methyl)-piperidin-4-yl)benzoyl)piperidin-4-yl)methyl)piperazin-1-yl)-2-fluoropyridin-3-yl)amino)piperidine-2,6-dione]
2 | 19.8 | COCc1nc2cc(-c3ccnc4c3cc(CN3CCC(c5ccc(C(=O)N6CCC(CN7CCN(c8ccc(NC9CCC(=O)NC9=O)c(F)n8)CC7)CC6)cc5)CC3)n4C)ccc2[nH]1 (centres unmarked) [Example 2n3, 3-((2-fluoro-6-(4-((1-(4-(1-((4-(2-(methoxymethyl)-1H-benzo[d]imidazol-5-yl)-1-methyl-1H-pyrrolo[2,3-b]pyridin-2-yl)methyl)piperidin-4-yl)benzoyl)piperidin-4-yl)methyl)piperazin-1-yl)pyridin-3-yl)amino)piperidine-2,6-dione]
3 | 11.7 | COCc1nc2cc(-c3ccnc4c3cc(CN3CCC(c5ccc(C(=O)N6CCC(CN7CCN(c8ncc(NC9CCC(=O)NC9=O)cc8F)CC7)CC6)cc5)CC3)n4C)ccc2[nH]1 (centres unmarked) [Example 2n6, 3-((5-fluoro-6-(4-((1-(4-(1-((4-(2-(methoxymethyl)-1H-benzo[d]imidazol-5-yl)-1-methyl-1H-pyrrolo[2,3-b]pyridin-2-yl)methyl)piperidin-4-yl)benzoyl)piperidin-4-yl)methyl)piperazin-1-yl)pyridin-3-yl)amino)piperidine-2,6-dione]
4 | 18 | C[C@@H](c1cc2c(-c3ccc4[nH]ncc4c3)ccnc2n1C)N1CCC(c2ccc(C(=O)N3CCC(CN4CCN(c5ccc(NC6CCC(=O)NC6=O)c(F)n5)CC4)CC3)cc2)CC1 (stereo partly drawn) [Example 2n7, 3-((6-(4-((1-(4-(1-((S)-1-(4-(1H-indazol-5-yl)-1-methyl-1H-pyrrolo[2,3-b]pyridin-2-yl)ethyl)-piperidin-4-yl)benzoyl)piperidin-4-yl)methyl)piperazin-1-yl)-2-fluoropyridin-3-yl)amino)piperidine-2,6-dione]
5 | 20.6 | COCc1nc2cc(-c3ccnc4c3cc(CN3CCC(c5ccc(C(=O)N6CCC(CN7CCC(N8CCN(c9ccc(NC%10CCC(=O)NC%10=O)cc9F)CC8)C(F)(F)C7)CC6)cc5)CC3)n4C)ccc2[nH]1 (centres unmarked) [Example 2p3, 3-((4-(4-(3,3-difluoro-1-((1-(4-(1-((4-(2-(methoxymethyl)-1H-benzo[d]imidazol-5-yl)-1-methyl-1H-pyrrolo[2,3-b]pyridin-2-yl)methyl)piperidin-4-yl)benzoyl)piperidin-4-yl)methyl)piperidin-4-yl)piperazin-1-yl)-3-fluorophenyl)amino)piperidine-2,6-dione]

Second part, the compound before the results:

Row | SMILES | DC50 [nM]
6 | Cn1c(CN2CCC(c3ccc(C(=O)N4CCC(CN5CCN(c6ccc(NC7CCC(=O)NC7=O)cn6)CC5)CC4)cc3)CC2)cc2c(-c3ccc4[nH]ncc4c3)ccnc21 (centres unmarked) [Example 2n1, 3-((6-(4-((1-(4-(1-((4-(1H-indazol-5-yl)-1-methyl-1H-pyrrolo[2,3-b]pyridin-2-yl)methyl)piperidin-4-yl)benzoyl)piperidin-4-yl)methyl)piperazin-1-yl)pyridin-3-yl)amino)piperidine-2,6-dione] | 15.2
7 | C[C@@H](c1cc2c(-c3ccc4[nH]ncc4c3)ccnc2n1C)N1CCC(c2ccc(C(=O)N3CCC(CN4CCN(c5ncc(NC6CCC(=O)NC6=O)cc5F)CC4)CC3)cc2)CC1 (stereo partly drawn) [Example 2n8, 3-((6-(4-((1-(4-(1-((S)-1-(4-(1H-indazol-5-yl)-1-methyl-1H-pyrrolo[2,3-b]pyridin-2-yl)ethyl)-piperidin-4-yl)benzoyl)piperidin-4-yl)methyl)piperazin-1-yl)-5-fluoropyridin-3-yl)amino)piperidine-2,6-dione] | 6.5
8 | CNc1ccc(-c2ccnc3c2cc([C@H](C)N2CCC(c4ccc(C(=O)N5CCC(CN6CCN(c7ncc(NC8CCC(=O)NC8=O)cc7F)CC6)CC5)cc4)CC2)n3C)cn1 (stereo partly drawn) [Example 2n13, 3-((5-fluoro-6-(4-((1-(4-(1-((S)-1-(1-methyl-4-(6-(methylamino)pyridin-3-yl)-1H-pyrrolo[2,3-b]pyridin-2-yl)ethyl)piperidin-4-yl)benzoyl)piperidin-4-yl)methyl)-piperazin-1-yl)pyridin-3-yl)amino)piperidine-2,6-dione] | 30
9 | CNc1ccc(-c2ccnc3c2cc([C@H](C)N2CCC(c4ccc(C(=O)N5CCC(CN6CCN(c7ccc(NC8CCC(=O)NC8=O)c(F)n7)CC6)CC5)cc4)CC2)n3C)cn1 (stereo partly drawn) [Example 2n14, 3-((2-fluoro-6-(4-((1-(4-(1-((S)-1-(1-methyl-4-(6-(methylamino)pyridin-3-yl)-1H-pyrrolo[2,3-b]pyridin-2-yl)ethyl)piperidin-4-yl)benzoyl)piperidin-4-yl)methyl)piperazin-1-yl)pyridin-3-yl)amino)piperidine-2,6-dione] | 49
10 | Cn1c(CN2CCC(c3ccc(C(=O)N4CCC(CN5CCC(N6CCN(c7ccc(NC8CCC(=O)NC8=O)cc7F)CC6)C(F)(F)C5)CC4)cc3)CC2)cc2c(-c3ccc4[nH]ncc4c3)ccnc21 (centres unmarked) [Example 2p1, 3-((4-(4-(1-((1-(4-(1-((4-(1H-indazol-5-yl)-1-methyl-1H-pyrrolo[2,3-b]pyridin-2-yl)methyl)-piperidin-4-yl)benzoyl)piperidin-4-yl)methyl)-3,3-difluoropiperidin-4-yl)piperazin-1-yl)-3-fluorophenyl)-amino)piperidine-2,6-dione] | 36.9
11 | Cn1c(CN2CCC(c3ccc(C(=O)N4CCC(CN5CCC(N6CCN(c7ccc(NC8CCC(=O)NC8=O)cc7F)CC6)C(F)(F)C5)CC4)cc3)CC2)cc2c(-c3ccc(N)nc3)ccnc21 (centres unmarked) [Example 2p2, 3-((4-(4-(1-((1-(4-(1-((4-(6-aminopyridin-3-yl)-1-methyl-1H-pyrrolo[2,3-b]pyridin-2-yl)-methyl)piperidin-4-yl)benzoyl)piperidin-4-yl)methyl)-3,3-difluoropiperidin-4-yl)piperazin-1-yl)-3-fluorophenyl)amino)piperidine-2,6-dione] | 61

same assay, conditions: Emax provided for test compounds with <80% Emax (and 2c15), geometric mean, read-out: STAT6 degradation Emax

Row | Emax [%] | SMILES
12 | 70 to 80 | Cn1c(CN2CCC(c3ccc(C(=O)N4CCC(CN5CCN(c6ccc(NC7CCC(=O)NC7=O)c(F)n6)CC5)CC4)cc3)CC2)cc2c(-c3ccc(N)nc3)ccnc21 (centres unmarked) [Example 2n4, 3-((6-(4-((1-(4-(1-((4-(6-aminopyridin-3-yl)-1-methyl-1H-pyrrolo[2,3-b]pyridin-2-yl)methyl)-piperidin-4-yl)benzoyl)piperidin-4-yl)methyl)piperazin-1-yl)-2-fluoropyridin-3-yl)amino)piperidine-2,6-dione]
13 | 70 to 80 | COCc1nc2cc(-c3ccnc4c3cc([C@H](C)N3CCC(c5ccc(C(=O)N6CCC(CN7CCN(c8ccc(NC9CCC(=O)NC9=O)c(F)n8)CC7)CC6)cc5)CC3)n4C)ccc2[nH]1 (stereo partly drawn) [Example 2n11, 3-((2-fluoro-6-(4-((1-(4-(1-((S)-1-(4-(2-(methoxymethyl)-1H-benzo[d]-imidazol-5-yl)-1-methyl-1H-pyrrolo[2,3-b]pyridin-2-yl)ethyl)piperidin-4-yl)benzoyl)-piperidin-4-yl)methyl)piperazin-1-yl)pyridin-3-yl)amino)piperidine-2,6-dione]

More lines, now with the values behind:

Row | SMILES | Emax [%]
14 | Cn1c(CN2CCC(c3ccc(C(=O)N4CCC(CN5CCN(c6ncc(NC7CCC(=O)NC7=O)cc6F)CC5)CC4)cc3)CC2)cc2c(-c3ccc(N)nc3)ccnc21 (centres unmarked) [Example 2n5, 3-((6-(4-((1-(4-(1-((4-(6-aminopyridin-3-yl)-1-methyl-1H-pyrrolo[2,3-b]pyridin-2-yl)methyl)-piperidin-4-yl)benzoyl)piperidin-4-yl)methyl)piperazin-1-yl)-5-fluoropyridin-3-yl)amino)piperidine-2,6-dione] | 60 to 70
15 | CNc1ccc(-c2ccnc3c2cc([C@H](C)N2CCC(c4ccc(C(=O)N5CCC(CN6CCN(c7ncc(NC8CCC(=O)NC8=O)cc7F)CC6)CC5)cc4)CC2)n3C)cn1 (stereo partly drawn) [Example 2n13, 3-((5-fluoro-6-(4-((1-(4-(1-((S)-1-(1-methyl-4-(6-(methylamino)pyridin-3-yl)-1H-pyrrolo[2,3-b]pyridin-2-yl)ethyl)piperidin-4-yl)benzoyl)piperidin-4-yl)methyl)-piperazin-1-yl)pyridin-3-yl)amino)piperidine-2,6-dione] | 79.3
16 | CN(C(=O)c1ccc(C2CCN(Cc3cc4c(-c5ccc(N)nc5)ccnc4n3C)CC2)cc1)c1ccc(CC2CCN(c3ccc(NC4CCC(=O)NC4=O)cc3)CC2)cc1 (centres unmarked) [Example 2o1, 4-(1-((4-(6-aminopyridin-3-yl)-1-methyl-1H-pyrrolo[2,3-b]pyridin-2-yl)-methyl)piperidin-4-yl)-N-(4-((1-(4-((2,6-dioxopiperidin-3-yl)amino)phenyl)piperidin-4-yl)methyl)phenyl)-N-methylbenzamide] | 50 to 60
17 | CN(C(=O)c1ccc(C2CCN(Cc3cc4c(-c5ccc6[nH]ncc6c5)ccnc4n3C)CC2)cc1)c1ccc(CC2CCN(c3ccc(NC4CCC(=O)NC4=O)cc3)CC2)cc1 (centres unmarked) [Example 2o2, 4-(1-((4-(1H-indazol-5-yl)-1-methyl-1H-pyrrolo[2,3-b]pyridin-2-yl)methyl)-piperidin-4-yl)-N-(4-((1-(4-((2,6-dioxopiperidin-3-yl)amino)phenyl)piperidin-4-yl)methyl)-phenyl)-N-methylbenzamide] | 60 to 70
